Source: US7414173B1, “Isolated nucleic acid molecules encoding orally active androctonus amoreuxi pesticidal biopeptides” (E.I. du Pont de Nemours and Company, priority 2002, dated 2008)

B1: Ts7: polypeptide set forth in SEQ ID NO:22 and 24, identified from a Centruroides vittatus telsons cDNA library (protein)
chain 1: MKFFLIVSLAIMSCFMEMKEVYAGTKGNFPVDFQGIFYECIVYNRCERDCKLHGSSYGYCYAGVCYCEGLADEDKYFLGM
chain 2: GTKGNFPVDFQGIFYECIVYNRCERDCKLHGSSYGYCYAGVCYCEGLADEDKYFLGM

Legend:
[1] = tested on: embryonic neuronal cultures of the American cockroach Periplaneta americana; assay: Fluorescence imaging ratiometric assay; format: cell-based; conditions: Fluo-4 AM loaded neuronal cells
Excerpt: Embryonic neuronal cultures of the American cockroach Periplaneta americana were established following the method of Beadle and Lees (See Beadle D. J. and Lees G., Chapter 5 in Cell Culture Approaches to Invertebrate Neuroscience, Beadle, D. J., Lees, G. and Kater, S. B. (eds.) Academic Press, New York 1988) with minor modification. Briefly, 24-day old oothecae were collected, surface-sterilized and cut open one third below the dorsal midline. The heads were then removed and placed in Schneider's Drosophila medium. Using fine forceps 32 brains were individually removed and placed in a small glass vial containing 790 μl of ‘5+4’ medium. […]
Cells were rinsed in standard physiological saline having the following composition (mM): NaCl 190; CaCl2 9; KCl 3.1; probenicid 1; Tris buffer 10; pH 7.2. […] Individual wells from the 96-well plate were sequentially excited with light at 495 nm and the emitted fluorescence at 530 nm detected using a Hamamatsu ORCA ER digital camera.
Acquisition control, image processing and image analysis were conducted using Universal Imaging Corporation's MetaMorph™ imaging software. […] Individual cells were separated and identified based on meeting designated morphometric criteria for total size and shape as previously determined experimentally for this cell type. […]

[2] = tested on: corn plant hopper Perigrinus maidis; assay: Screening of Androctonus amoreuxi venom fractions for Homopteran activity; format: in vivo; conditions: HPLC fractions of venom
Procedure: This assay can be used for a variety of homopterans including, but not limited to, Myzus persicae and Perigrinus maidis. The assay involves trapping the sample between two layers of maximally stretched parafilm which act as a sachet on top of a small vessel containing the insect of choice.
The assay was prepared as follows: 1 cm diameter polystyrene tubing was cut into 15 mm lengths. One end of the tube was then capped with a fine mesh screen. Five insects were then added to the chamber after which the first layer of parafilm was stretched over the remaining open end. 25 μl of sample (polypeptide in a 5% sucrose solution containing McCormick green food coloring) was then placed on top of the stretched parafilm. A second layer of parafilm was then stretched by hand and placed over the sample. […] The assay tubes were monitored for insect reproduction and death on a 24 hour basis and compared to a 5% sucrose control.
Initial screening of five minute fractions of the venom from Androctonus amoreuxi indicated activity against the corn plant hopper Perigrinus maidis. […] Sufficient quantities of this purified protein were collected to allow confirmation of activity and to initiate protein sequencing by Edmund degradation as described in Example 2. The mature sequence was determined to be that indicated in SEQ ID NO:20. […]

[3] = tested on: Myzus persicae (Green Peach Aphid); assay: Aphid bioassay on transgenic Arabidopsis thaliana events; format: in vivo; conditions: 35S promoter, versus controls
Excerpt: cDNAs encoding potential sodium channel neurotoxins were identified from sequence data derived from a cDNA library of Centruroides vittatus telsons. […] Full length genes were PCR amplified with oligonucleotide primers introducing restriction enzyme sites at the 5′ and 3′ ends of the gene. The PCR products were TOPO-cloned into pCR2.1 (Invitrogen Co.) and the sequence was confirmed. The resulting constructs were then cloned into a binary vector between the Cauliflower mosaic virus 35S promoter and the NOS termination signal. The binary vector also contained a selection marker cassette including the Cauliflower mosaic 35S promoter, the BAR gene, and NOS terminator.
Binary constructs were electroporated into Agrobacterium tumefaciens strain C58. Transformed Agrobacterium cultures were grown in YM media for 2 days at 28° C. to an OD600 of approximately 1.0. Cells were pelleted by centrifugation and resuspended at the original culture volume in 5% sucrose with 0.05% Silwet L-77. The Agrobacterium slurry was sprinkled onto the inflorescences of flowering Arabidopsis thaliana (Landberg) plants using a 10-25 ml pipette. […]
Bioassays were performed on individual transformation events enclosed within plastic tubes with a fine mesh screen at the top to confine the aphids. […] Plants were scored for total number of adult aphids and nymphs at various intervals post infestation.

Molecule	changes in Fluo-4 fluorescence (intracellular free calcium) [1]	activity against the corn plant hopper Perigrinus maidis (Homopteran activity) [2]	aphid resistance (total number of adult aphids and nymphs) [3]
Aam1 (ADVPGNYPLDSSDNTYLCAPLGDNPDCIKICQKHGVDYGYCYAFQCWCEFLKDENVKV)	changes in fluorescence characteristic of a sodium channel agonist	Homopteran activity was then found to be associated	
B1			greater degree of aphid resistance than controls
